Assay results from US11192893B2, “Pyrazoloquinazolinone antitumor agents” (The Rockefeller University, priority 2017, dated 2021).
pIC50: −log10 of the molar value.

System: Hedgehog pathway activity
Test: Shh-Light luciferase reporter assay of Hedgehog pathway activity (Shh-Light2 cells, SAG-stimulated)
Format: cell-based
Settings: for activity at 2 µM: 2 μM compound, read-out: SHH-light % residual @ 2 μM; for activity at 2 µM / activity at 20 µM: SAG 500 nM; for activity at 20 µM: 20 μM compound, read-out: SHH-light % residual @ 20 μM; for pIC50: Table 2, SAG 500 nM, 28-32 hr treatment, read-out: Shh-light IC50
Method: To examine the inhibition of dynein 2 in cell-based assays, an established luciferase reporter-based cellular assay of Hedgehog pathway activity was employed [Taipale et al., Nature. 2000; 406(6799): 1005-9]. Signaling in this pathway depends on the function of dynein 2. In this setting, expression of luciferase driven by Hedgehog pathway activity was inhibited by compound 5 with an IC50 value of 0.9±0.5 μM. […] The potencies of these compounds in this cell-based assay match the rank-order of dynein 2 inhibition in vitro. In these assays, Hedgehog pathway activity was stimulated using the Synthetic Agonist of Smoothened (SAG). This compound competes with many Hedgehog pathway inhibitors for binding to Smoothened, a key node in the signaling pathway.
SHH-Light Assay (Steinman et al. eLife 2017; 6:e25174.)
NIH-3T3 cells stably expressing a luciferase reporter downstream of a Gli binding site (Shh-Light2 cells, RRID: CVCL_2721) were maintained in DMEM with 10% bovine calf serum (BCS). Cells were seeded at a density of 30,000 cells/well in 96-well tissue culture-treated plates (Corning, cat #353072) in 100 μL in DMEM+10% BCS, and incubated for 48 hr (Taipale et al., 2000). Wells were washed briefly with PBS. Next […] of low serum media (DMEM+0.5% BCS) containing smoothened agonist (SAG, 500 nM), and either solvent control (0.2% DMSO) or test compound (serial three-fold dilutions of each inhibitor starting from 20 μM) were added to the wells. After 28-32 hr of inhibitor treatment, cells were washed with 50 μL PBS and lysed for >30 min in 30 μL Passive Lysis Buffer (Promega Dual Luciferase kit, cat E1910). 5 uL of each lysate was transferred to white, solid-bottom 96-well plates (Greiner, cat #655075), followed by rapid addition (within 30 s) of 30 μL of Luciferase Assay Reagent using a multichannel pipette. Luminescence for each condition was read using a Synergy Neo plate reader (5 s integration time per well). Cell line identity was confirmed by measurement of the degree of response to Hedgehog pathway stimulation by the synthetic agonist SAG and using previously published values from our groups and others as references (Firestone et al., 2012; Hyman et al., 2009).

| pIC50 | SMILES | activity at 2 µM [%] | activity at 20 µM [%] |
| --- | --- | --- | --- |
| 6.14 | N#Cc1c(C2(c3ccc(Cl)cc3)CC2)nn2c(=O)c3cc(C(F)(F)F)ccc3[nH]c12 [Example 11, 2-[1-(4-Chlorophenyl)cyclopropyl]-9-oxo-7-(trifluoromethyl)-4H-pyrazolo[5,1-b]quinazoline-3-carbonitrile] | 17.7 | -4.1 |
| 6.47 | N#Cc1c(C2CCC(c3ccc(Cl)cc3)CC2)nn2c(=O)c3cc(C4CC4)ccc3[nH]c12 (stereo not drawn) [Example 13, 2-[4-(4-Chlorophenyl)cyclohexyl]-7-cyclopropyl-9-oxo-4H-pyrazolo[5,1-b]quinazoline-3-carbonitrile] | -3.1 | -3.6 |
| 6.33 | N#Cc1c(C2(c3ccc(Cl)cc3)CC2)nn2c(=O)c3cc(C4CC4)ccc3[nH]c12 [Example 14, 2-[1-(4-Chlorophenyl)cyclopropyl]-7-cyclopropyl-9-oxo-4H-pyrazolo[5,1-b]quinazoline-3-carbonitrile] | -2.3 | -1.8 |
| 6.49 | N#Cc1c(C2CCC(c3ccc(Cl)cc3)CC2)nn2c(=O)c3cc(C(F)(F)F)ccc3[nH]c12 (stereo not drawn) [Example 15, 2-[4-(4-Chlorophenyl)cyclohexyl]-9-oxo-7-(trifluoromethyl)-4H-pyrazolo[5,1-b]quinazoline-3-carbonitrile] | -3.1 | -4 |
| 6.22 | N#Cc1c(C2CCC(c3ccc(Cl)cc3)CC2)nn2c(=O)c3cc(Cl)ccc3[nH]c12 (stereo not drawn) [Example 17, 7-Chloro-2-[4-(4-chlorophenyl)cyclohexyl]-9-oxo-4H-pyrazolo[5,1-b]quinazoline-3-carbonitrile] | -2.3 | -3.9 |
| 6.12 | N#Cc1c(C2(c3ccc(Cl)cc3)CC2)nn2c(=O)c3cc(Cl)ccc3[nH]c12 [Example 18, 7-Chloro-2-[1-(4-chlorophenyl)cyclopropyl]-9-oxo-4H-pyrazolo[5,1-b]quinazoline-3-carbonitrile] | -0.5 | 2.8 |
| 5.80 | N#Cc1c(C2(c3ccc(Cl)cc3)CC2)nn2c(=O)c3cc(F)ccc3[nH]c12 [Example 19, 2-[1-(4-Chlorophenyl)cyclopropyl]-7-fluoro-9-oxo-4H-pyrazolo[5,1-b]quinazoline-3-carbonitrile] | 1.4 | -0.4 |
| 6.48 | N#Cc1c(N2CCC(c3ccc(Cl)cc3)CC2)nn2c(=O)c3cc(Cl)ccc3[nH]c12 [Example 20, 7-Chloro-2-[4-(4-chlorophenyl)-1-piperidyl]-9-oxo-4H-pyrazolo[5,1-b]quinazoline-3-carbonitrile] | -2.5 | -3.1 |
| 6.17 | N#Cc1c(C2CCC(c3ccc(Cl)cc3)CC2)nn2c(=O)c3cc(Br)ccc3[nH]c12 (stereo not drawn) [Example 22, 7-Bromo-2-[4-(4-chlorophenyl)cyclohexyl]-9-oxo-4H-pyrazolo[5,1-b]quinazoline-3-carbonitrile] | -2.9 | -2.8 |
| 5.70 | N#Cc1c(-c2ccc(Cl)cc2Cl)nn2c(=O)c3ccccc3[nH]c12 [Example 33, 2-(2,4-Dichlorophenyl)-9-oxo-4H-pyrazolo[5,1-b]quinazoline-3-carbonitrile] |  | -3.6 |
| 5.44 | NC(=O)c1c(-c2ccc(Cl)cc2Cl)nn2c(=O)c3ccc(Cl)cc3[nH]c12 [Example 34, 6-Chloro-2-(2,4-dichlorophenyl)-9-oxo-4H-pyrazolo[5,1-b]quinazoline-3-carboxamide] |  | -3.4 |
| 5.68 | N#Cc1c(-c2ccc(Cl)cc2Cl)nn2c(=O)c3ccc(Cl)cc3[nH]c12 [Example 35, 6-Chloro-2-(2,4-dichlorophenyl)-9-oxo-4H-pyrazolo[5,1-b]quinazoline-3-carbonitrile] |  |  |
| 5.00 | COc1cccc2c(=O)n3nc(-c4ccc(Cl)cc4Cl)c(C#N)c3[nH]c12 [Example 36, 2-(2,4-Dichlorophenyl)-5-methoxy-9-oxo-4H-pyrazolo[5,1-b]quinazoline-3-carbonitrile] |  |  |
| 5.70 | COc1c(Cl)ccc2c(=O)n3nc(-c4ccc(Cl)cc4Cl)c(C#N)c3[nH]c12 [Example 38, 6-Chloro-2-(2,4-dichlorophenyl)-5-methoxy-9-oxo-4H-pyrazolo[5,1-b]quinazoline-3-carbonitrile] | 74 | 19 |
| 4.89 | COc1ccc2[nH]c3c(C(N)=O)c(-c4ccc(Cl)cc4Cl)nn3c(=O)c2c1 [Example 39, 2-(2,4-Dichlorophenyl)-7-methoxy-9-oxo-4H-pyrazolo[5,1-b]quinazoline-3-carboxamide] |  | 121 |
| 6.23 | COc1ccc2[nH]c3c(C#N)c(-c4ccc(Cl)cc4Cl)nn3c(=O)c2c1 [Example 40, 2-(2,4-Dichlorophenyl)-7-methoxy-9-oxo-4H-pyrazolo[5,1-b]quinazoline-3-carbonitrile] | 37 | 14 |

The next lines start with the compound.

| SMILES | pIC50 | activity at 2 µM [%] | activity at 20 µM [%] |
| --- | --- | --- | --- |
| N#Cc1ccc2[nH]c3c(C#N)c(C4(c5ccc(Cl)cc5)CC4)nn3c(=O)c2c1 [Example 10, 2-[1-(4-Chlorophenyl)cyclopropyl]-9-oxo-4H-pyrazolo[5,1-b]quinazoline-3,7-dicarbonitrile] |  | 70.1 | 10 |
| N#Cc1c(C2CCN(c3ccc(Cl)cc3)CC2)nn2c(=O)c3cc(C(F)(F)F)ccc3[nH]c12 [Example 16, 2-[1-(4-Chlorophenyl)-4-piperidyl]-9-oxo-7-(trifluoromethyl)-4H-pyrazolo[5,1-b]quinazoline-3-carbonitrile] |  | 33.7 | -4.1 |
| N#Cc1c(C2CCN(c3ccc(Cl)cc3)CC2)nn2c(=O)c3cc(Cl)ccc3[nH]c12 [Example 21, 7-Chloro-2-[1-(4-chlorophenyl)-4-piperidyl]-9-oxo-4H-pyrazolo[5,1-b]quinazoline-3-carbonitrile] |  | -2 | -2.6 |
| N#Cc1c(OC2CCN(c3ncc(Cl)cn3)CC2)nn2c(=O)c3cc(Cl)ccc3[nH]c12 [Example 23, 7-Chloro-2-[[1-(5-chloropyrimidin-2-yl)-4-piperidyl]oxy]-9-oxo-4H-pyrazolo[5,1-b]quinazoline-3-carbonitrile] |  | 8.2 | -2.9 |
| N#Cc1c(OC2CCN(C(=O)c3ccc(Cl)cc3)CC2)nn2c(=O)c3cc(Cl)ccc3[nH]c12 [Example 24, 7-Chloro-2-[[1-(4-chlorobenzoyl)-4-piperidyl]oxy]-9-oxo-4H-pyrazolo[5,1-b]quinazoline-3-carbonitrile] |  | 72.4 | 1.6 |
| N#Cc1c(OC2CCN(c3ccc(Cl)cn3)CC2)nn2c(=O)c3cc(Cl)ccc3[nH]c12 [Example 25, 7-Chloro-2-[[1-(5-chloro-2-pyridyl)-4-piperidyl]oxy]-9-oxo-4H-pyrazolo[5,1-b]quinazoline-3-carbonitrile] |  | 41.7 | -3.8 |
| NC(=O)c1c(C2CCC(c3ccc(Cl)cc3)CC2)nn2c(=O)c3ccccc3[nH]c12 (stereo not drawn) [Example 26, 2-[4-(4-Chlorophenyl)cyclohexyl]-9-oxo-4H-pyrazolo[5,1-b]quinazoline-3-carboxamide] |  | 68.8 | -4.5 |
| NC(=O)c1c(CCCOc2ccc(Cl)cc2)nn2c(=O)c3ccccc3[nH]c12 [Example 28, 2-[3-(4-Chlorophenoxy)propyl]-9-oxo-4H-pyrazolo[5,1-b]quinazoline-3-carboxamide] |  | 68.9 | 40.3 |
| NC(=O)c1c(C2(c3ccc(Cl)cc3)CC2)nn2c(=O)c3ccccc3[nH]c12 [Example 30, 2-[1-(4-Chlorophenyl)cyclopropyl]-9-oxo-4H-pyrazolo[5,1-b]quinazoline-3-carboxamide] |  | 101 | 22.1 |
| NC(=O)c1c(-c2ccc(Cl)cc2Cl)nn2c(=O)c3ccccc3[nH]c12 [Example 32, 2-(2,4-Dichlorophenyl)-9-oxo-4H-pyrazolo[5,1-b]quinazoline-3-carboxamide] |  |  | 57.5 |
| COc1cccc2[nH]c3c(C#N)c(-c4ccc(Cl)cc4Cl)nn3c(=O)c12 [Example 37, 2-(2,4-Dichlorophenyl)-8-methoxy-9-oxo-4H-pyrazolo[5,1-b]quinazoline-3-carbonitrile] |  | 100 | 18 |
| NC(=O)c1c(COc2ccc(Cl)cc2)nn2c(=O)c3ccccc3[nH]c12 [Example 41, 2-[(4-Chlorophenoxy)methyl]-9-oxo-4H-pyrazolo[5,1-b]quinazoline-3-carboxamide] |  | 73.7 |  |
